In brackets after ≈: the same amount, converted by molar mass. Read-outs that look alike come from different tables or passages of the source.
How the values were obtained:
[1] = system: clinically isolated strains of MRSA; experiment: Antibacterial MIC spectra against 50 clinically isolated strains of MRSA; format: cell-based, methicillin-resistant Staphylococcus aureus; settings: Staphylococcus aureus; for MIC: read-out: Antibacterial MIC spectra; for MIC50: 50% of the 50 MRSA strains inhibited, read-out: MIC50; for MIC90: 90% of the 50 MRSA strains inhibited, read-out: MIC90
Protocol: (§1) Minimum growth inhibitory concentrations (MIC) of each of 2"-amino-2"-deoxyarbekacin (Compound Ia), 2"-amino-5,2"-dideoxyarbekacin (Compound Ib), 2"-amino-2"-deoxydibekacin (Compound IIa) and 2"-amino-5,2"-dideoxydibekacin (Compound IIb) against various bacteria (20 strains) and against clinically isolated strains of MRSA (50 strains) were determined by standard serial dilution method on Muller-Hinton's agar medium (as estimated after cultivating at 27° C. for 18 hours), and the test results obtained are shown in TABLE 3 and TABLE 4, respectively.
Note:- MIC50 or MIC90 represents the concentration of tested
active compound at which 50% or 90% of the total numbers of the bacterial
strains tested were inhibited from their growth. DKB denotes dibekacin,
(§2) Minimum growth inhibitory concentrations (MIC) of each of 2"-amino-5,2"-dideoxy-5-epi-fluoroarbekacin (Compound XVIa) and 2"-amino-5,2"-dideoxy-5-epi-aminoarbekacin (Compound XVIb) against various bacteria (18 strains) and against clinically isolated strains of MRSA (50 strains) were determined by standard serial dilution method on Muller-Hinton's agar medium (as estimated after cultivation at 27° C. for 18 hours), and the test results obtained are shown in TABLE 5 and TABLE 6, respectively.

Solubility in water = format: physicochemical
P. aeruginosa PST1 = experiment: MIC by standard serial dilution method on Muller-Hinton's agar; format: cell-based; settings: Pseudomonas aeruginosa, 18 hours
Protocol: as §1, §2

[2] = system: Providencia rettgeri GN311; experiment: as above; format: cell-based; settings: 18 hours, read-out: MIC
Protocol: as §1, §2

S. epidermidis 109 = experiment: as above; format: cell-based; settings: Staphylococcus epidermidis, 109, 27° C., 18 hours, read-out: MIC
Protocol: as §1, §2

[3] = system: Pseudomonas aeruginosa A3; experiment: as above; format: cell-based; settings: 18 hours, read-out: MIC
Protocol: as §1, §2

E. coli JR66/W677 = experiment: as above; format: cell-based; settings: Escherichia coli, JR66/W677, 18 h
Protocol: as §1, §2

[4] = system: Staphylococcus aureus FDA209P; experiment: as above; format: cell-based; settings: 18 hours
Protocol: as §1, §2

[5] = system: Shigella dysenteriae JSI1910; experiment: as above; format: cell-based; settings: JSI1910, 18 h
Protocol: as §1, §2

E. coli K-12 ML1629 = experiment: as above; format: cell-based; settings: Escherichia coli
Protocol: as §1, §2

Escherichia coli NIHJ = experiment: as above; format: cell-based; settings: 18 hours
Protocol: as §1, §2

E. coli K-12 LA290 R55 = experiment: as above; format: cell-based; settings: Escherichia coli, K12LA290R55, 18 h
Protocol: as §1, §2

Bacillus subtilis PCI219 = experiment: as above; format: cell-based; settings: 18 hours
Protocol: as §1, §2

Proteus vulgaris OX19 = experiment: as above; format: cell-based; settings: 18 hours, read-out: MIC
Protocol: as §1, §2

[6] = system: Klebsiella pneumoniae PCI602; experiment: as above; format: cell-based; settings: 18 hours, read-out: MIC
Protocol: as §1, §2

P. aeruginosa TI-13 = experiment: as above; format: cell-based; settings: Pseudomonas aeruginosa
Protocol: as §1, §2

Salmonella typhi T-63 = experiment: as above; format: cell-based; settings: Salmonella enterica, 18 hours
Protocol: as §1, §2

S. aureus Smith = experiment: as above; format: cell-based; settings: Staphylococcus aureus, 27° C., 18 hours
Protocol: as §1, §2

P. aeruginosa H9 = experiment: as above; format: cell-based; settings: Pseudomonas aeruginosa
Protocol: as §1, §2

Serratia marcescens = experiment: as above; format: cell-based
Protocol: as §1, §2

B. cereus ATCC10702 = experiment: as above; format: cell-based; settings: Bacillus cereus, ATCC10702, 18 h
Protocol: as §1

E. coli K-12 ML1410 = experiment: as above; format: cell-based; settings: Escherichia coli, K12ML1410; Table 3; 27° C., 18 hours
Protocol: as §1

[7] = Acute toxicity, single intravenous administration to mice; format: in vivo; settings: mouse, in vivo; single intravenous administration; mice (ICR-strain, 4 weeks old, female); observations for two weeks; read-out: LD50
Excerpt: 50% Lethal dosages (LD50, observations for two weeks) of the new compounds of this invention as estimated upon single intravenous administration to mice (ICR-strain, 4 weeks old, female) are as follows:
50% Lethal dosages (LD50, observations for two weeks) of the new compounds of general formula (XVI) according to the seventh aspect of this invention as estimated upon single intravenous administration to mice (ICR-strain, 4 weeks old, female) are as follows: […]

[8] = TI13, Table 5, 27° C., 18 hours, read-out: MIC

Row | Structure (SMILES) | MIC ([1]; MRSA, 18 h) | MIC50 ([1]; 27° C., 18 hours) | MIC90 ([1]; 27° C., 18 hours) | Solubility (Solubility in water) | MIC (E. coli JR66/W677) | MIC [5] | MIC (E. coli K-12 LA290 R55) | MIC (Serratia marcescens; 18 h) | LD50 at 336 h [7] | MIC (P. aeruginosa PST1; Table 5, 27° C.) | MIC ([2]; GN311, Table 5, 27° C.) | MIC (S. epidermidis 109; Table 5) | MIC ([3]; A3, Table 5, 27° C.) | MIC ([4]; Table 5, 27° C.) | MIC (E. coli K-12 ML1629; K12ML1629, 18 h) | MIC (Escherichia coli NIHJ; Table 5, 27° C.) | MIC (Bacillus subtilis PCI219; Table 5, 27° C.) | MIC (Proteus vulgaris OX19; OX19, Table 5, 27° C.) | MIC ([6]; PCI602, Table 5, 27° C.) | MIC (P. aeruginosa TI-13; [8]) | other results
1 | NCC[C@H](O)C(=O)N[C@@H]1C[C@H](N)[C@@H](O[C@H]2O[C@H](CN)CC[C@H]2N)[C@H](O)[C@H]1O[C@H]1O[C@H](CO)[C@@H](O)[C@H](N)[C@H]1N [Compound Ia, 2"-Amino-2"-deoxyarbekacin] | 0.2 to 3.13 µg/mL (≈ 0.363 to 5.67 µM) | 0.78 µg/mL (≈ 1.41 µM) | 1.56 µg/mL (≈ 2.83 µM) | easily soluble in water | 3.13 µg/mL (≈ 5.67 µM) | 3.13 µg/mL (≈ 5.67 µM) | 0.78 µg/mL (≈ 1.41 µM) | 3.13 µg/mL (≈ 5.67 µM) | > 100 mg/kg |  |  |  |  |  |  |  |  |  |  |  | MIC (P. aeruginosa PST1; Table 3, 27° C.): 12.5 µg/mL (≈ 22.7 µM); MIC ([2]; GN311, Table 3, 27° C.): 1.56 µg/mL (≈ 2.83 µM); MIC (S. epidermidis 109; Table 3): 0.78 µg/mL (≈ 1.41 µM); MIC ([3]; A3, Table 3, 27° C.): 1.56 µg/mL (≈ 2.83 µM); MIC ([4]; Table 3, 27° C.): 0.39 µg/mL (≈ 0.707 µM); MIC (E. coli K-12 ML1629; K12ML1629, Table 3, 27° C., 18 hours, read-out: MIC): 3.13 µg/mL (≈ 5.67 µM); MIC (Escherichia coli NIHJ; Table 3, 27° C.): 0.78 µg/mL (≈ 1.41 µM); MIC (Bacillus subtilis PCI219; Table 3, 27° C.): 0.2 µg/mL (≈ 0.363 µM); MIC (Proteus vulgaris OX19; OX19, Table 3, 27° C.): 1.56 µg/mL (≈ 2.83 µM); MIC ([6]; PCI602, Table 3, 27° C.): 1.56 µg/mL (≈ 2.83 µM); MIC (P. aeruginosa TI-13; TI13, 18 h): 3.13 µg/mL (≈ 5.67 µM); MIC (Salmonella typhi T-63; Table 3, 27° C.): 0.78 µg/mL (≈ 1.41 µM); MIC (S. aureus Smith; Table 3): ≤ 0.2 µg/mL; MIC (P. aeruginosa H9; H9, Table 3, 27° C., 18 hours, read-out: MIC): 6.25 µg/mL (≈ 11.3 µM); MIC (B. cereus ATCC10702): 3.13 µg/mL (≈ 5.67 µM); MIC (E. coli K-12 ML1410): 1.56 µg/mL (≈ 2.83 µM)
2 | NCC[C@H](O)C(=O)N[C@@H]1C[C@H](N)[C@@H](O[C@H]2O[C@H](CN)CC[C@H]2N)[C@@H](F)[C@H]1O[C@H]1O[C@H](CO)[C@@H](O)[C@H](N)[C@H]1N [Compound XVIa, 2"-Amino-5,2"-dideoxy-5-epi-fluoroarbekacin] | 0.39 to 3.13 µg/mL (≈ 0.704 to 5.65 µM) | 0.78 µg/mL (≈ 1.41 µM) | 1.56 µg/mL (≈ 2.82 µM) | easily soluble in water | 3.13 µg/mL (≈ 5.65 µM) | 3.13 µg/mL (≈ 5.65 µM) | 1.56 µg/mL (≈ 2.82 µM) |  | > 100 mg/kg | 12.5 µg/mL (≈ 22.6 µM) | 1.56 µg/mL (≈ 2.82 µM) | 0.78 µg/mL (≈ 1.41 µM) | 0.78 µg/mL (≈ 1.41 µM) | 0.78 µg/mL (≈ 1.41 µM) | 3.13 µg/mL (≈ 5.65 µM) | 0.78 µg/mL (≈ 1.41 µM) | 0.39 µg/mL (≈ 0.704 µM) | 1.56 µg/mL (≈ 2.82 µM) | 1.56 µg/mL (≈ 2.82 µM) | 1.56 µg/mL (≈ 2.82 µM) | MIC (Salmonella typhi T-63; Table 5, 27° C.): 0.78 µg/mL (≈ 1.41 µM); MIC (S. aureus Smith; Table 5): ≤ 0.2 µg/mL; MIC (P. aeruginosa H9; H9, 18 h): 3.13 µg/mL (≈ 5.65 µM); MIC (Serratia marcescens; Table 5, 27° C., 18 hours, read-out: MIC): 1.56 µg/mL (≈ 2.82 µM)
3 | NCC[C@H](O)C(=O)N[C@@H]1C[C@H](N)[C@@H](O[C@H]2O[C@H](CN)CC[C@H]2N)[C@@H](N)[C@H]1O[C@H]1O[C@H](CO)[C@@H](O)[C@H](N)[C@H]1N [Compound XVIb, 2"-amino-5,2"-dideoxy-5-epi-aminoarbekacin] |  | 0.78 µg/mL (≈ 1.42 µM) | 1.56 µg/mL (≈ 2.83 µM) | easily soluble in water | 3.13 µg/mL (≈ 5.68 µM) | 3.13 µg/mL (≈ 5.68 µM) | 1.56 µg/mL (≈ 2.83 µM) | 3.13 µg/mL (≈ 5.68 µM) | > 100 mg/kg | 6.25 µg/mL (≈ 11.4 µM) | 1.56 µg/mL (≈ 2.83 µM) | 0.39 µg/mL (≈ 0.708 µM) | 0.39 µg/mL (≈ 0.708 µM) | ≤ 0.2 µg/mL | 1.56 µg/mL (≈ 2.83 µM) | 0.78 µg/mL (≈ 1.42 µM) | ≤ 0.2 µg/mL | 1.56 µg/mL (≈ 2.83 µM) | 1.56 µg/mL (≈ 2.83 µM) | 1.56 µg/mL (≈ 2.83 µM) | MIC ([1]; range over 50 clinically isolated strains of MRSA, 27° C., 18 hours): 0.39 to 1.56 µg/mL (≈ 0.708 to 2.83 µM); MIC (Salmonella typhi T-63; Table 5, 27° C.): 0.78 µg/mL (≈ 1.42 µM); MIC (S. aureus Smith; Table 5): ≤ 0.2 µg/mL; MIC (P. aeruginosa H9; H9, 18 h): 3.13 µg/mL (≈ 5.68 µM)
4 | NC[C@@H]1CC[C@@H](N)[C@@H](O[C@H]2[C@H](O)[C@@H](O[C@H]3O[C@H](CO)[C@@H](O)[C@H](N)[C@H]3O)[C@H](N)C[C@@H]2N)O1 [DKB, 3',4'-dideoxykanamycin B, reference compound] |  | 50 µg/mL (≈ 111 µM) | > 100 µg/mL |  |  |  |  |  |  |  |  |  |  |  |  |  |  |  |  |  | 

— patent US5618795A, “Dibekacin derivatives and arbekacin derivatives active against resistant bacteria, and the production thereof” (Zaidan Hojin Biseibutsu Kagaku Kenkyu Kai, priority 1992, dated 1997)
